Tested on: durch CCl₄ induzierte Leberfibrose in Ratten
Experiment: CCl₄-induced liver fibrosis in rats, 8-week treatment (liver hydroxyproline, serum procollagen III peptide, serum bilirubin)
Assay type: in vivo
Conditions: 8 weeks
Source text: Zum Nachweis der effektiven Hemmung der Prolin- und Lysinhydroxylase durch die erfindungsgemäßen Verbindungen wurden die Hydroxyprolin-Konzentrationen in der Leber und die Prokollagen-III-Peptid-Konzentrationen im Serum von • a) unbehandelten Ratten (Kontrolle) • b) Ratten, denen Tetrachlorkohlenstoff verabreicht wurde (CCl₄-Kontrolle) • c) Ratten, denen zunächst CCl₄ und anschließend eine erfindungsgemäße Verbindung verabreicht wurde gemessen (diese Testmethode wird beschrieben von Rouiller, C., experimental toxic injury of the liver; in The Liver, C. Rouiller, Vol. 2, S. 335-476, New York, Academic Press, 1964).
Die Wirkstärke der erfindungsgemäßen Verbindungen wurde als prozentuale Hemmung der Leber-Hydroxyprolin- und Prokollagen-III-Peptidsynthese nach oraler Gabe im Vergleich zu Kontrolltieren, denen nur Tetrachlorkohlenstoff verabreicht wurde (CCl₄-Kontrolle), bestimmt. Die Ergebnisse sind in Tabelle 1 aufgeführt. Tabelle 1

CC(=O)NNC(=O)c1ccnc(C(=O)NNC(C)=O)c1 [Example 1, Pyridin-2,4-dicarbonsäuredi-(methylcarbonylhydrazid)]
Bilirubin (Bilirubin in Serum (total), rats given CCl₄ then compound, daily oral dose 50 mg/kg): 3,0 µM | Hyp (Hydroxyprolin Gehalt in der Leber, rats given CCl₄ then compound, daily oral dose 50 mg/kg): 0,181 µg/ml | PIIIP (Prokollagen III N-peptid im Serum, rats given CCl₄ then compound, daily oral dose 50 mg/kg): 29 ng/mL | Hyp Zunahme (absolut) gegen Kontrolle (liver hydroxyproline, absolute increase versus untreated control, 50 mg/kg oral daily): 0,125 µg/ml | Hyp prozentuale Abnahme gegen CCl₄-Behandlung (liver hydroxyproline, 50 mg/kg oral daily): 27% | Mittelwert: Gesamtgehalt an Bilirubin, PIIIP und Hyp, % Abweichung (mean of the percent decreases of bilirubin, PIIIP and Hyp versus CCl₄ treatment, 50 mg/kg oral daily): (33 ± 13 %) | PIIIP Zunahme (absolut) gegen Kontrolle (serum procollagen III N-peptide, absolute increase versus untreated control, 50 mg/kg oral daily): 18 ng/mL | PIIIP prozentuale Abnahme gegen CCl₄-Behandlung (serum procollagen III N-peptide, 50 mg/kg oral daily): 14% | Bilirubin Zunahme (absolut) gegen Kontrolle (serum total bilirubin, absolute increase versus untreated control, 50 mg/kg oral daily): 1,1 µM | Bilirubin prozentuale Abnahme gegen CCl₄-Behandlung (serum total bilirubin, 50 mg/kg oral daily): 58%
